Earlier results on one molecule are cited in patent publication US9000190B2, “Amide compound or salt thereof, biofilm inhibitor, biofilm remover and disinfectant containing the same” (The University of Tokyo, priority 2006, dated 2015).

SMILES strings stand for the structures.

Some test systems named below: P. aeruginosa ATCC 27853; E. coli ATCC 25922; S. aureus ATCC 29213.
Conditions in all cases: Publicly-known data; cited from earlier work

In the case of `NC[C@H]1O[C@H](O[C@H]2[C@H](O)[C@@H](O[C@H]3O[C@H](CO)[C@@H](O)[C@H](N)[C@H]3O)[C@H](N)C[C@@H]2N)[C@H](N)C[C@@H]1O` [TOB, Tobramycin], the “MIC (μg/mL) from M100-S16” value with P. aeruginosa ATCC 27853 was 0.25 to 1 µg/mL; in the series on E. coli ATCC 25922, 0.25 to 1 µg/mL; with S. aureus ATCC 29213, 0.12 to 1 µg/mL.
